Test results from ChEMBL document CHEMBL4842376, “Design, synthesis and biological evaluation of novel hybrids targeting mTOR and HDACs for potential treatment of hepatocellular carcinoma” (Eur J Med Chem, 2021).
Calls of active or inactive are those of the source. No cut-off for these calls is given here.

What was measured:
HepG2 [1] = test: Induction of apoptosis in human HepG2 cells assessed as early apoptotic cells at 5 uM measured after 24 hrs by Annexin V-FITC/PI staining based flow cytometry analysis (Rvb= 6.15%); assay type: functional
HepG2 [2] = test: Induction of apoptosis in human HepG2 cells assessed as late apoptotic cells at 5 uM measured after 24 hrs by Annexin V-FITC/PI staining based flow cytometry analysis (Rvb= […]); assay type: functional
HepG2 [3] = test: Induction of apoptosis in human HepG2 cells assessed as live cells at 2.5 uM measured after 24 hrs by Annexin V-FITC/PI staining based flow cytometry analysis (Rvb= 84.6%); assay type: functional
HepG2 [4] = test: Induction of cell cycle arrest in human HepG2 cells assessed as accumulation of cells in S phase at 1.5 uM measured after 24 hrs by propidium iodide staining based flow cytometry analysis (Rvb= 17 to 26.4%); assay type: functional
HepG2 [5] = test: Induction of apoptosis in human HepG2 cells assessed as late apoptotic cells at 2.5 uM measured after 24 hrs by Annexin V-FITC/PI staining based flow cytometry analysis (Rvb= […]); assay type: functional
HepG2 [6] = test: Antimigratory activity in human HepG2 cells assessed as reduction in wound closure measured after 24 to 48 hrs by scratch wound healing assay; assay type: functional, cell-based; conditions: dose 1.5-6 µM, time 24-48 hrs
[7] = biological target: T1, Serine/threonine-protein kinase mTOR (Homo sapiens, UniProt P42345); test: Inhibition of mTOR (unknown origin) at 1 uM using U-Light-4E-BP1 peptide as a substrate in the presence of ATP incubated for 30 mins by Lance ultra assay relative to control
PLC-PRF-5 = test: Antiproliferative activity against human PLC-PRF-5 cells assessed as inhibition of cell growth measured after 72 hrs by MTT assay; assay type: functional, cell-based; conditions: PLC-PRF-5, 72 h
CNE-2 = test: cells; assay type: functional, cell-based; conditions: Homo sapiens, CNE-2, 72 h
Description: Antiproliferative activity against human CNE-2 cells assessed as inhibition of cell growth measured after 72 hrs by MTT assay

HepG2 [8] = test: Induction of apoptosis in human HepG2 cells assessed as necrotic cells at 5 uM measured after 24 hrs by Annexin V-FITC/PI staining based flow cytometry analysis (Rvb= 0.082%); assay type: functional
HepG2 [9] = test: Antiproliferative activity against human HepG2 cells assessed as inhibition of cell growth measured after 72 hrs by MTT assay; assay type: functional, cell-based; conditions: HepG2, 72 h
L02 = test: cells; assay type: ADME, cell-based; conditions: Homo sapiens, L02, 72 h
Description: Cytotoxicity against human L02 cells assessed as reduction in cell viability measured after 72 hrs by MTT assay

Histone deacetylase 2 = Histone deacetylase 2 (Homo sapiens, UniProt Q92769)
Sequence of Histone deacetylase 2 (Q92769 whole entry): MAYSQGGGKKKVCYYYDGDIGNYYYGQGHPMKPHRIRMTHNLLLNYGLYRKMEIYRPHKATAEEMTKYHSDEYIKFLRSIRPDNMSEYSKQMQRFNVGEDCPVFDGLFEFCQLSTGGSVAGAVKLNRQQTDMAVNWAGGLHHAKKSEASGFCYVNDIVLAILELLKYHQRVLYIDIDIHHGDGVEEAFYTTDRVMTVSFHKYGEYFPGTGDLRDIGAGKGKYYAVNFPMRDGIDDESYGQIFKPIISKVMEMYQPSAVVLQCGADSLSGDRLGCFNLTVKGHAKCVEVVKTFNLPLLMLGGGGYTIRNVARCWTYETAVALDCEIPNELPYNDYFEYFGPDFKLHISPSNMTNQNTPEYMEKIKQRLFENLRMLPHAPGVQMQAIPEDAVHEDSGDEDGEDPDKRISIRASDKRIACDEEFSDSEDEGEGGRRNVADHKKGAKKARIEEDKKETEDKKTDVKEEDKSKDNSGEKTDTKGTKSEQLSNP

HepG2 [10] = test: Induction of cell cycle arrest in human HepG2 cells assessed as accumulation of cells in G0/G1 phase at 6 uM measured after 24 hrs by propidium iodide staining based flow cytometry analysis (reference value: 52.7 to 63.2%); assay type: functional
HeLa = test: cells; assay type: functional, cell-based; conditions: Homo sapiens, 72 h
Description: Antiproliferative activity against human HeLa cells assessed as inhibition of cell growth measured after 72 hrs by MTT assay

Huh-7 = test: cells; assay type: functional, cell-based; conditions: Homo sapiens, Huh-7, 72 h
Description: Antiproliferative activity against human Huh-7 cells assessed as inhibition of cell growth measured after 72 hrs by MTT assay

HepG2 [11] = test: Induction of cell cycle arrest in human HepG2 cells assessed as accumulation of cells in G2/M phase at 6 uM measured after 24 hrs by propidium iodide staining based flow cytometry analysis (Rvb= 17.8 to 18.5%); assay type: functional
[12] = Metabolic stability in rat liver microsomes assessed as parent compound remaining at 10 ug/ml measured after 1 hr in the presence of NADPH by HPLC analysis; assay type: ADME, Microsome; conditions: at 10 µg/mL
HepG2 [13] = test: Induction of cell cycle arrest in human HepG2 cells assessed as accumulation of cells in G2/M phase at 3 uM measured after 24 hrs by propidium iodide staining based flow cytometry analysis (reference value: 17.8 to 18.5%); assay type: functional
HepG2 [14] = test: Induction of apoptosis in human HepG2 cells assessed as live cells at 10 uM measured after 24 hrs by Annexin V-FITC/PI staining based flow cytometry analysis (Rvb= 84.6%); assay type: functional
[15] = biological target: T1, Serine/threonine-protein kinase mTOR; test: Inhibition of mTOR (unknown origin) using U-Light-4E-BP1 peptide as a substrate in the presence of ATP incubated for 30 mins by Lance ultra assay
HCT-116 = test: cells; assay type: functional, cell-based; conditions: Homo sapiens, HCT-116, 72 h
Description: Antiproliferative activity against human HCT-116 cells assessed as inhibition of cell growth measured after 72 hrs by MTT assay

HepG2 [16] = test: Induction of cell cycle arrest in human HepG2 cells assessed as accumulation of cells in G0/G1 phase at 3 uM measured after 24 hrs by propidium iodide staining based flow cytometry analysis (reference value: 52.7 to 63.2%); assay type: functional
HepG2 [17] = test: Induction of apoptosis in human HepG2 cells assessed as late apoptotic cells at 10 uM measured after 24 hrs by Annexin V-FITC/PI staining based flow cytometry analysis (Rvb= […]); assay type: functional
HepG2 [18] = test: Induction of apoptosis in human HepG2 cells assessed as early apoptotic cells at 10 uM measured after 24 hrs by Annexin V-FITC/PI staining based flow cytometry analysis (Rvb= 6.15%); assay type: functional
[19] = biological target: Histone deacetylase (Homo sapiens) (UniProt Q13547+O15379+Q9UBN7+Q92769+Q9UQL6+Q8WUI4+Q9BY41+Q96DB2+P56524+Q9UKV0+Q969S8); test: Inhibition of HDAC in human HepG2 cells assessed as upregulation of alpha-tubulin acetylation at 6 uM measured after 24 hrs by western blot analysis; assay type: cell-based
HepG2 [20] = test: Induction of cell cycle arrest in human HepG2 cells assessed as accumulation of cells in G0/G1 phase at 1.5 uM measured after 24 hrs by propidium iodide staining based flow cytometry analysis (reference value: 52.7 to 63.2%); assay type: functional
HepG2 [21] = test: Induction of apoptosis in human HepG2 cells assessed as early apoptotic cells at 2.5 uM measured after 24 hrs by Annexin V-FITC/PI staining based flow cytometry analysis (Rvb= 6.15%); assay type: functional
MDA-MB-231 = test: cells; assay type: functional, cell-based; conditions: Homo sapiens, MDA-MB-231, 72 h
Description: Antiproliferative activity against human MDA-MB-231 cells assessed as inhibition of cell growth measured after 72 hrs by MTT assay

Bel-7402 = test: Antiproliferative activity against human Bel-7402 cells assessed as inhibition of cell growth measured after 72 hrs by MTT assay; assay type: functional, cell-based; conditions: Bel-7402, 72 h

| Compound | Activity (HepG2 [1]) | Activity (HepG2 [2]) | Activity (HepG2 [3]) | Activity (HepG2 [4]) | Activity (HepG2 [5]) | Activity (HepG2 [6]) | inhibition [7] | IC50 (PLC-PRF-5) | IC50 (CNE-2) | Activity (HepG2 [8]) | IC50 (HepG2 [9]) | IC50 (L02) | IC50 (Histone deacetylase 2) | Activity (HepG2 [10]) | IC50 (HeLa) | IC50 (Huh-7) | Activity (HepG2 [11]) | Activity (HepG2 [13]) | Activity (HepG2 [14]) | IC50 [15] | further results |
| --- | --- | --- | --- | --- | --- | --- | --- | --- | --- | --- | --- | --- | --- | --- | --- | --- | --- | --- | --- | --- | --- |
| Nc1nc2cc(-c3nn(CCCCCCC(=O)NO)c4ncnc(N)c34)ccc2o1 | 15.3% | 14.5% | 63.7% | 16.4% | 8.06% | Dose-Dependent Effect | 99% | > 50 µM | 4.36 µM | 0.59% | 1.61 µM | 24.8 µM | 0.0032 µM | 73.3% | 6.41 µM | 5.71 µM | 15.7% | 10.8% | 42.2% | 0.00767 µM | Stabilty ([12]; microsomes, 1 h): Stable; IC50 (HCT-116): 5.39 µM; Activity (HepG2 [16]): 70.4%; Activity (HepG2 [17]): 27.2%; Activity (HepG2 [18]): 30.4%; inhibition [19]: Active; Activity (HepG2 [20]): 66.2%; Activity (HepG2 [21]): 28.1%; IC50 (MDA-MB-231): 8.43 µM; IC50 (Bel-7402): > 50 µM |
| Nc1ncnc2c1c(-c1cnc3[nH]ccc3c1)nn2CCCCCCCCC(=O)NO | 12% | 10.4% | 69.7% | 20.2% | 12.3% | Dose-Dependent Effect | 97.7% | 14.9 µM | 2.27 µM | 0.15% | 3.05 µM | 35.1 µM | 0.024 µM | 66.6% | 7.47 µM | 7.38 µM | 23.5% | 18.6% | 62% | 0.0923 µM | remaining at 1 h, 10 ug/ml ([12]; liver microsomes, read-out: Stabilty): 55.2%; IC50 (HCT-116): 5.46 µM; Activity (HepG2 [16]): 64.5%; Activity (HepG2 [17]): 17.8%; Activity (HepG2 [18]): 19.7%; inhibition [19]: Active; Activity (HepG2 [20]): 60.1%; Activity (HepG2 [21]): 17.4%; IC50 (MDA-MB-231): 11 µM; IC50 (Bel-7402): 18.9 µM |
